From patent publication US9717748B2, “Compositions and methods for treating an infection” (CMPD LICENSING, LLC, priority 2015, dated 2017)
Where two headings read alike, the source gives them in different places.

Experiments:
Serratia marcescens = assay: Expected efficacy of antibiotic agents; conditions: Gram: neg
Shigella dysenteriae = assay: Expected efficacy of antibiotic agents; conditions: Gram: neg
Peptostreptococcus = assay: Expected efficacy of antibiotic agents; conditions: Gram: pos
Clostridium difficile = assay: Expected efficacy of antibiotic agents; conditions: Gram: anaer
Bacteroides fragilis = assay: Expected efficacy of antibiotic agents; conditions: Gram: anaer
Acinetobacter baumannii = assay: Expected efficacy of antibiotic agents; conditions: Gram: neg
Citrobacter diversus = assay: Expected efficacy of antibiotic agents; conditions: Gram: neg
[1] = system: Staphylococcus aureus (MSSA); assay: Expected efficacy of antibiotic agents; conditions: Gram: pos
Neisseria meningitidis = assay: Expected efficacy of antibiotic agents; conditions: Gram: neg
Enterococcus faecium = assay: Expected efficacy of antibiotic agents; conditions: Gram: pos
[2] = system: Viridans group streptococci; assay: Expected efficacy of antibiotic agents; conditions: Gram: pos
Shigella sonnei = assay: Expected efficacy of antibiotic agents; conditions: Gram: neg
Vibrio cholerae = assay: Expected efficacy of antibiotic agents; conditions: Gram: neg
Neisseria gonorrhoeae = assay: Expected efficacy of antibiotic agents; conditions: Gram: neg
Klebsiella pneumoniae = assay: Expected efficacy of antibiotic agents; conditions: Gram: neg
[3] = system: Acinetobacter calcoaceticus; assay: Expected efficacy of antibiotic agents; conditions: Gram: neg
Streptococcus pyogenes = assay: Expected efficacy of antibiotic agents; conditions: Gram: pos
Enterobacter cloacae = assay: Expected efficacy of antibiotic agents; conditions: Gram: neg
Diphtheroids = assay: Expected efficacy of antibiotic agents; conditions: Gram: pos
Enterobacter sakazakii = assay: Expected efficacy of antibiotic agents; conditions: Gram: neg
Haemophilus ducreyi = assay: Expected efficacy of antibiotic agents; conditions: Gram: neg
Shigella flexneri = assay: Expected efficacy of antibiotic agents; conditions: Gram: neg
Pseudomonas fluorescens = assay: Expected efficacy of antibiotic agents; conditions: Gram: neg
Proteus mirabilis = assay: Expected efficacy of antibiotic agents; conditions: Gram: neg
Citrobacter freundii = assay: Expected efficacy of antibiotic agents; conditions: Gram: neg
[4] = system: Haemophilus parainfluenzae; assay: Expected efficacy of antibiotic agents; conditions: Gram: neg
Corynebacterium jeikeium = assay: Expected efficacy of antibiotic agents; conditions: Gram: pos
Moraxella catarrhalis = assay: Expected efficacy of antibiotic agents; conditions: Gram: neg
Streptococcus agalactiae = assay: Expected efficacy of antibiotic agents; conditions: Gram: pos
Enterobacter aerogenes = assay: Expected efficacy of antibiotic agents; conditions: Gram: neg
Haemophilus influenzae = assay: Expected efficacy of antibiotic agents; conditions: Gram: neg
Chlamydia pneumoniae = assay: Expected efficacy of antibiotic agents; conditions: Gram: n/a
Salmonella typhi = assay: Expected efficacy of antibiotic agents; conditions: Gram: neg
Providencia stuartii = assay: Expected efficacy of antibiotic agents; conditions: Gram: neg
[5] = system: Klebsiella (Calymmato-bacterium) granulomatis; assay: Expected efficacy of antibiotic agents; conditions: Gram: neg
[6] = system: Corynebacterium urealyticum; assay: Expected efficacy of antibiotic agents; conditions: Gram: pos
Providencia rettgeri = assay: Expected efficacy of antibiotic agents; conditions: Gram: neg
Morganella morganii = assay: Expected efficacy of antibiotic agents; conditions: Gram: neg
Escherichia coli = assay: Expected efficacy of antibiotic agents; conditions: Gram: neg
Klebsiella oxytoca = assay: Expected efficacy of antibiotic agents; conditions: Gram: neg
Acinetobacter lwoffii = assay: Expected efficacy of antibiotic agents; conditions: Gram: neg
Mycoplasma pneumoniae = assay: Expected efficacy of antibiotic agents; conditions: Gram: n/a
Bartonella bacilliformis = assay: Expected efficacy of antibiotic agents; conditions: Gram: neg
Shigella boydii = assay: Expected efficacy of antibiotic agents; conditions: Gram: neg
Pseudomonas aeruginosa = assay: Expected efficacy of antibiotic agents; conditions: Gram: neg
Chlamydia trachomatis = assay: Expected efficacy of antibiotic agents; conditions: Gram: n/a
Bordetella pertussis = assay: Expected efficacy of antibiotic agents; conditions: Gram: neg
[7] = system: Staphylococcus epidermidis; assay: Expected efficacy of antibiotic agents; conditions: Gram: pos
Campylobacter jejuni = assay: Expected efficacy of antibiotic agents; conditions: Gram: neg
Proteus vulgaris = assay: Expected efficacy of antibiotic agents; conditions: Gram: neg
Enterococcus faecalis = assay: Expected efficacy of antibiotic agents; conditions: Gram: pos
[8] = system: Methicillin resistant staphaureus (MRSA); assay: Expected efficacy of antibiotic agents; conditions: Gram: pos
Streptococcus pneumoniae = assay: Expected efficacy of antibiotic agents; conditions: Gram: pos

CN[C@H](CC(C)C)C(=O)N[C@H]1C(=O)N[C@@H](CC(N)=O)C(=O)N[C@H]2C(=O)N[C@H]3C(=O)N[C@H](C(=O)N[C@H](C(=O)O)c4cc(O)cc(O)c4-c4cc3ccc4O)[C@H](O)c3ccc(c(Cl)c3)Oc3cc2cc(c3O[C@@H]2O[C@H](CO)[C@@H](O)[C@H](O)[C@H]2O[C@H]2C[C@](C)(N)[C@H](O)[C@H](C)O2)Oc2ccc(cc2Cl)[C@H]1O [Vancomycin]
Expected efficacy against Serratia marcescens (Serratia marcescens): no
Expected efficacy against Clostridium perfringens (Clostridium perfringens): no
Expected efficacy against Shigella dysenteriae (Shigella dysenteriae): no
Expected efficacy against Peptostreptococcus (Peptostreptococcus): yes
Expected efficacy against Clostridium difficile (Clostridium difficile): yes
Expected efficacy against Bacteroides fragilis (Bacteroides fragilis): no
Expected efficacy against Acinetobacter baumannii (Acinetobacter baumannii): no
Expected efficacy against Rickettsiae (Rickettsiae): no
Expected efficacy against Citrobacter diversus (Citrobacter diversus): no
Expected efficacy against Staphylococcus aureus (MSSA) [1]: yes
Expected efficacy against Legionella pneumophila (Legionella pneumophila): no
Expected efficacy against Neisseria meningitidis (Neisseria meningitidis): no
Expected efficacy against Enterococcus faecium (Enterococcus faecium): yes, not VRE
Expected efficacy against Viridans group streptococci [2]: yes
Expected efficacy against Shigella sonnei (Shigella sonnei): no
Expected efficacy against Vibrio cholerae (Vibrio cholerae): no
Expected efficacy against Neisseria gonorrhoeae (Neisseria gonorrhoeae): no
Expected efficacy against Klebsiella pneumoniae (Klebsiella pneumoniae): no
Expected efficacy against Acinetobacter calcoaceticus [3]: no
Expected efficacy against Streptococcus pyogenes (Streptococcus pyogenes): yes
Expected efficacy against Enterobacter cloacae (Enterobacter cloacae): no
Expected efficacy against Diphtheroids (Diphtheroids): yes
Expected efficacy against Enterobacter sakazakii (Enterobacter sakazakii): no
Expected efficacy against Yersinia pestis (Yersinia pestis): no
Expected efficacy against Haemophilus ducreyi (Haemophilus ducreyi): no
Expected efficacy against Shigella flexneri (Shigella flexneri): no
Expected efficacy against Pseudomonas fluorescens (Pseudomonas fluorescens): no
Expected efficacy against Chlamydia psittaci (Chlamydia psittaci): no
Expected efficacy against Francisella tularensis (Francisella tularensis): no
Expected efficacy against Proteus mirabilis (Proteus mirabilis): no
Expected efficacy against Citrobacter freundii (Citrobacter freundii): no
Expected efficacy against Haemophilus parainfluenzae [4]: no
Expected efficacy against Corynebacterium jeikeium (Corynebacterium jeikeium): yes
Expected efficacy against Moraxella catarrhalis (Moraxella catarrhalis): no
Expected efficacy against Streptococcus agalactiae (Streptococcus agalactiae): yes
Expected efficacy against Enterobacter aerogenes (Enterobacter aerogenes): no
Expected efficacy against Haemophilus influenzae (Haemophilus influenzae): no
Expected efficacy against Chlamydia pneumoniae (Chlamydia pneumoniae): no
Expected efficacy against Salmonella typhi (Salmonella typhi): no
Expected efficacy against Providencia stuartii (Providencia stuartii): no
Expected efficacy against Klebsiella (Calymmato-bacterium) granulomatis [5]: no
Expected efficacy against Corynebacterium urealyticum [6]: yes
Expected efficacy against Brucella species (Brucella species): no
Expected efficacy against Providencia rettgeri (Providencia rettgeri): no
Expected efficacy against Morganella morganii (Morganella morganii): no
Expected efficacy against Escherichia coli (Escherichia coli): no
Expected efficacy against Klebsiella oxytoca (Klebsiella oxytoca): no
Expected efficacy against Acinetobacter lwoffii (Acinetobacter lwoffii): no
Expected efficacy against Mycoplasma pneumoniae (Mycoplasma pneumoniae): no
Expected efficacy against Bartonella bacilliformis (Bartonella bacilliformis): no
Expected efficacy against Shigella boydii (Shigella boydii): no
Expected efficacy against Pseudomonas aeruginosa (Pseudomonas aeruginosa): no
Expected efficacy against Chlamydia trachomatis (Chlamydia trachomatis): no
Expected efficacy against Bordetella pertussis (Bordetella pertussis): no
Expected efficacy against Staphylococcus epidermidis [7]: yes
Expected efficacy against Campylobacter jejuni (Campylobacter jejuni): no
Expected efficacy against Proteus vulgaris (Proteus vulgaris): no

Colistimethate
Expected efficacy against Serratia marcescens (Serratia marcescens): no
Expected efficacy against Enterococcus faecalis (Enterococcus faecalis): no
Expected efficacy against Peptostreptococcus (Peptostreptococcus): no
Expected efficacy against Clostridium difficile (Clostridium difficile): no
Expected efficacy against Bacteroides fragilis (Bacteroides fragilis): no
Expected efficacy against Staphylococcus aureus (MSSA) [1]: yes
Expected efficacy against Legionella pneumophila (Legionella pneumophila; Gram: neg): no
Expected efficacy against Neisseria meningitidis (Neisseria meningitidis): no
Expected efficacy against Enterococcus faecium (Enterococcus faecium): no
Expected efficacy against Viridans group streptococci [2]: no
Expected efficacy against Vibrio cholerae (Vibrio cholerae): no
Expected efficacy against Neisseria gonorrhoeae (Neisseria gonorrhoeae): no
Expected efficacy against Klebsiella pneumoniae (Klebsiella pneumoniae): yes
Expected efficacy against Streptococcus pyogenes (Streptococcus pyogenes): no
Expected efficacy against Enterobacter cloacae (Enterobacter cloacae): yes
Expected efficacy against Diphtheroids (Diphtheroids): no
Expected efficacy against Enterobacter sakazakii (Enterobacter sakazakii): yes
Expected efficacy against Chlamydia psittaci (Chlamydia psittaci; Gram: n/a): no
Expected efficacy against Proteus mirabilis (Proteus mirabilis): no
Expected efficacy against Methicillin resistant staphaureus (MRSA) [8]: no
Expected efficacy against Haemophilus parainfluenzae [4]: no
Expected efficacy against Corynebacterium jeikeium (Corynebacterium jeikeium): no
Expected efficacy against Moraxella catarrhalis (Moraxella catarrhalis): no
Expected efficacy against Streptococcus agalactiae (Streptococcus agalactiae): no
Expected efficacy against Streptococcus pneumoniae (Streptococcus pneumoniae): no
Expected efficacy against Chlamydia pneumoniae (Chlamydia pneumoniae): no
Expected efficacy against Providencia stuartii (Providencia stuartii): no
Expected efficacy against Klebsiella (Calymmato-bacterium) granulomatis [5]: yes
Expected efficacy against Corynebacterium urealyticum [6]: no
Expected efficacy against Brucella species (Brucella species; Gram: neg): no
Expected efficacy against Providencia rettgeri (Providencia rettgeri): no
Expected efficacy against Mycoplasma pneumoniae (Mycoplasma pneumoniae): no
Expected efficacy against Pseudomonas aeruginosa (Pseudomonas aeruginosa): yes
Expected efficacy against Chlamydia trachomatis (Chlamydia trachomatis): no
Expected efficacy against Bordetella pertussis (Bordetella pertussis): no
Expected efficacy against Staphylococcus epidermidis [7]: no
Expected efficacy against Proteus vulgaris (Proteus vulgaris): no
